The record followed here is patent US5244895A, “Anti-ulcer agent” (Hidaka; Hiroyoshi, priority 1991, dated 1993).

Data set [1] is described as follows: Acute toxicity, oral administration. The data set is classed as in vivo, Sle:ICR mouse (male). Particulars: 300 mg/kg oral, 6 hours observation; for Mortality rate: deaths/mice. The protocol:
(§1) Each test compound was administered to a male Sle:ICR mouse of 29 to 32 g body weight fasted for 18 to 20 hours (5 mice per group) to examine the presence of acute toxicity.

Data set [2] can be described thus: Acute toxicity, intraperitoneal administration. Type of data set: in vivo, Sle:ICR mouse (male). Particulars: 200 mg/kg intraperitoneal, 6 hours observation; for Mortality rate: deaths/mice. The protocol:
as §1

Data set [3] relates to water immersion restriction stress ulcer. Nature of the data set: Water immersion restriction stress ulcer, oral administration. The data set is classed as in vivo, Crj:Wistar rat (male). To be noted: 100 mg/kg oral; for Gastric damage index: 30 min before 6 h water immersion stress, control 15.7; for inhibition in vivo at 100 mg/kg: Rattus norvegicus, 6 h, read-out: Inhibition rate. The protocol: (§2) After the stress loading, the animal was killed by exsanguination and the cardia part of stomach was ligated and then 10 ml of 1% formalin was poured into the stomach and the stomach was extirpated. […] 0.5 ml/body weight of 1% pontamine sky blue physiological saline was injected intravenously 10 minutes before the slaughter. The test compound was administered after dissolved in physiological saline or in physiological saline containing Tween 80 added. Five […] of physiological saline was administered to the control group.

Data set [4] relates to aspirin ulcer. Nature of the data set: Anti-aspirin ulcer test, intraperitoneal administration. The data set is classed as in vivo, Crj:Wistar rat (male). Particulars: for Gastric damage index: 100 mg/kg intraperitoneal (abdominally injected), control 58.8; for Inhibition rate: gastric damage index vs control, 100 mg/kg intraperitoneal. The protocol:
(§3) Each 100 mg/kg of the test compounds was administered orally to a male Crj:Wistar rat of 198 to 243 g body weight fasted for ca. 24 hours (7 to 8 rats per group) and 30 minutes after the administration 200 mg/5 ml/kg of aspirin suspended in 0.5% sodium CMC aqueous solution was administered orally. Six hours later the animals was killed by exsanguination and the cardia part of stomach was ligated and 10 ml of 1% formaline solution was poured into the stomach and the stomach was extirpated. Then, it was incised along the greater curvature side and washed with physiological saline and the major axis of the spotted and linear erosion and ulcer were measured under a steromicroscope and their total sum per head was calculated as the gastric damage index (mm) and the effect was judged by the inhibiting rate against the control group [(Gastric damage index of the control group-Gastric damage index of the test compound)/Gastric damage index of the control group×100]. 0.5 ml/body weight of 1% pontamine sky blue physiological saline was injected intravenously 10 minutes before the slaughter. The test compound was administered after dissolved in physiological saline or in physiological saline containing Tween 80 added. Five […] of physiological saline was administered to the control group.
Each 100 mg/kg of the test compound was abdominally injected to a male Crj:Wistar rat of 210 to 265 g body weight fasted for ca. 24 hours (7 to 8 rats per group) and the procedures were carried out in a same manner as in oral administration.

In data set [5] the test system is gastric juice secretion. In words: Anti-gastric juice secretion test, intraduodenal administration (pylorus ligation). The data set is classed as in vivo, Crj:Wistar rat (male). Particulars: 100 mg/kg intraduodenal, 4 h after pylorus ligation; for pH of gastric juice: control 1.7; for Amount of gastric juice: control 2.6; for Free hydrochloric acid: control 116; for Total acidity: control 168. The protocol: Each 100 mg/kg of the test compounds was administered duodenally to a male Crj:Wistar rat of 205 to 240 g body weight fasted for ca. 24 hours (7 to 8 rats per group) and immediately after the dose the pylorus was ligated under diethyl ether anesthesia. Four hours after the ligation, the animal was killed and the stomach was isolated and the amount and the pH of gastric juice and free hydrochloric acid contained in it and the total acidity of it were measured to examine the effect of inhibiting gastric juice secretion. The test compounds were dosed after dissolved in physiological saline or in physiological saline containing Tween 80 added. Five […] of physiological saline was administered to the control group.

Data set [6] relates to water immersion restriction stress ulcer. Nature of the data set: Water immersion restriction stress ulcer, intraperitoneal administration. The data set is classed as in vivo, Crj:Wistar rat (male). Particulars: 100 mg/kg intraperitoneal; for Gastric damage index: control 22.7; for Inhibition rate: gastric damage index vs control. The protocol:
as §2

In data set [7] the test system is aspirin ulcer. In words: Anti-aspirin ulcer test, oral administration. The data set is classed as in vivo, Crj:Wistar rat (male). Particulars: 100 mg/kg oral; for Gastric damage index: 30 min before aspirin 200 mg/kg oral, control 76.0; for Gastric damage index / inhibition in vivo at 100 mg/kg: 6 h; for inhibition in vivo at 100 mg/kg: Rattus norvegicus, read-out: Inhibition rate. The protocol:
as §3

The subject of data set [8] is gastric juice secretion. Nature of the data set: Anti-gastric juice secretion test, intraperitoneal administration (pylorus ligation). The data set is classed as in vivo, Crj:Wistar rat (male). Particulars: 100 mg/kg intraperitoneal, 30 min before pylorus ligation; for pH of gastric juice: control 1.7; for Amount of gastric juice: control 3.2; for Free hydrochloric acid: control 155; for Total acidity: control 208.

Where [9] appears, read: gastric damage index vs control, water immersion stress.
[10] abbreviates: gastric damage index vs control, aspirin 200 mg/kg.

As to `COc1ccc(CC(CN2CCCN(C(=O)OCc3ccccc3)CC2)N(CCN)S(=O)(=O)c2cccc3cnccc23)cc1` (stereo not shown) [(15), N-[2-(4-benzyloxycarbonylhomopiperazinyl)-1-(p-methoxybenzyl)ethyl]-N-(2-aminoethyl)-5-isoquinoline sulfonamide], the Mortality rate in data set [1] and in data set [2] was 0/5 in each case. Moreover, the Gastric damage index in data set [3] was 6.6 mm; with aspirin ulcer [4], 11.8 mm; in data set [6] it was 6.6 mm; in the data set on aspirin ulcer [7], 35.8 mm. For the same compound, the Inhibition rate in data set [3] (setting [9]) came to 58%; in the data set with aspirin ulcer [4] it was 80%; in data set [6], 71%; in the data set on aspirin ulcer [7] (setting [10]), 64%. For the same compound, the “pH of gastric juice” value with gastric juice secretion [5] and in the data set with gastric juice secretion [8] was 2.6 each time. Further, the figures for the “Amount of gastric juice” value in the data set with gastric juice secretion [5] and in the data set on gastric juice secretion [8] were 1.1 ml/100 g body weight and 1.3 ml/100 g body weight, respectively. Moreover, the Free hydrochloric acid in the data set on gastric juice secretion [5] is recorded as 22 μEq/100 g body weight; in the data set on gastric juice secretion [8], 36 μEq/100 body weight. Besides, the Total acidity in the data set with gastric juice secretion [5] came out at 43 μEq/100 g body weight; in the data set with gastric juice secretion [8] it was 74 μEq/100 body weight.

Take `CN(C(Cc1ccc(O)cc1)CN1CCCN(C(=O)OCc2ccccc2)CC1)S(=O)(=O)c1cccc2cnccc12` (stereo not shown) [(14), N-[2-(4-benzyloxycarbonylhomopiperazinyl)-1-(p-hydroxybenzyl)ethyl]-N-methyl-5-isoquinoline sulfonamide]: the General condition entry in data set [1] and in data set [2] was “No abnormality” each time. Further, the Mortality rate in data set [1] and in data set [2] was 0/5 throughout. For the same compound, the Gastric damage index in data set [3] stood at 4.3 mm; in the data set on aspirin ulcer [4] it was 5.3 mm; in data set [6], 3.9 mm; with aspirin ulcer [7], 11.2 mm. Further, the figures for the inhibition in vivo at 100 mg/kg (in data set [3] (setting [9]); in the data set with aspirin ulcer [7] (setting [10])) were 73% and 85%, respectively. Besides, the Inhibition rate in the data set on aspirin ulcer [4] is listed as 91%; in data set [6], 83%. Moreover, the “pH of gastric juice” value with gastric juice secretion [5] was determined as 3.1; in the data set on gastric juice secretion [8], 3.0. In addition, the “Amount of gastric juice” value with gastric juice secretion [5] and in the data set with gastric juice secretion [8] was 0.6 ml/100 g body weight each time. Also, the Free hydrochloric acid in the data set on gastric juice secretion [5] was 8 μEq/100 g body weight; with gastric juice secretion [8], 4 μEq/100 body weight. The figures for the Total acidity in the data set on gastric juice secretion [5] and in the data set on gastric juice secretion [8] were 11 μEq/100 g body weight and 17 μEq/100 body weight, respectively.

On to `CN(C(Cc1ccc(O)cc1)CN1CCN(C(=O)OCc2ccccc2)CC1)S(=O)(=O)c1cccc2cnccc12` (stereo not shown) [(4), N-[2-(4-benzyloxycarbonylpiperazinyl)-1-(p-hydroxybenzyl)ethyl]-N-methyl-5-isoquinoline sulfonamide], for which, in data set [1], the General condition entry was “No abnormality” and the Mortality rate is 0/5. Further, the Gastric damage index in data set [3] was 8.4 mm. Further, in data set [3] (setting [9]), the inhibition in vivo at 100 mg/kg was 46%. In the data set on gastric juice secretion [5], the “pH of gastric juice” value stood at 2.3, the “Amount of gastric juice” value is reported as 1.8 ml/100 g body weight, the Free hydrochloric acid worked out at 36 μEq/100 g body weight and the Total acidity was found to be 74 μEq/100 g body weight. The compound further yielded a Gastric damage index in the data set with aspirin ulcer [7] of 34.6 mm. Moreover, the inhibition in vivo at 100 mg/kg with aspirin ulcer [7] (setting [10]) stood at 55%.

As to `COc1ccc(CC(CN2CCCN(C(=O)OCc3ccccc3)CC2)N(CCN(C)C)S(=O)(=O)c2cccc3cnccc23)cc1` (stereo not shown) [(16), N-[2-(4-benzyloxycarbonylhomopiperazinyl)-1-(p-methoxybenzyl)ethyl]-N-(2-dimethylaminoethyl)-5-isoquinoline sulfonamide], the General condition entry in data set [1] and in data set [2] was “No abnormality” each time. Moreover, the Mortality rate in data set [1] and in data set [2] was 0/5 each time. Besides, the Gastric damage index in data set [3] is recorded as 4.6 mm; in the data set on aspirin ulcer [4], 10.6 mm; in data set [6] it was 5.4 mm; in the data set on aspirin ulcer [7], 17.0 mm. In addition, the figures for the inhibition in vivo at 100 mg/kg (in data set [3] (setting [9]); with aspirin ulcer [7] (setting [10])) were 70% and 78%, respectively. Further, the Inhibition rate in the data set on aspirin ulcer [4] was found to be 82%; in data set [6], 76%. Also, the “pH of gastric juice” value in the data set with gastric juice secretion [5] and with gastric juice secretion [8] was 2.9 in each case. Besides, the entries for the “Amount of gastric juice” value in the data set on gastric juice secretion [5] and in the data set with gastric juice secretion [8] were 0.9 ml/100 g body weight and 0.6 ml/100 g body weight, respectively. For the same compound, the Free hydrochloric acid stood at 11 μEq/100 g body weight in the data set with gastric juice secretion [5] and 8 μEq/100 body weight with gastric juice secretion [8]. The Total acidity in the data set on gastric juice secretion [5] is given as 29 μEq/100 g body weight; with gastric juice secretion [8], 24 μEq/100 body weight.

For the compound `O=S(=O)(NC(Cc1ccc(O)cc1)CN1CCC(OCc2ccc(Cl)c(Cl)c2)CC1)c1cccc2cnccc12` (stereo not shown) [(7), N-{1-(p-hydroxybenzyl)-2-[4-(3,4-dichlorobenzyloxy)piperidino]ethyl}-5-isoquinoline sulfonamide], the Gastric damage index in data set [3] was found to be 5.4 mm; in the data set with aspirin ulcer [4], 15.3 mm; in data set [6], 7.0 mm; with aspirin ulcer [7] it was 26.9 mm. Further, the inhibition in vivo at 100 mg/kg in data set [3] (setting [9]) came to 66%; in the data set on aspirin ulcer [7] (setting [10]) it was 65%. Further, the Inhibition rate was 74% with aspirin ulcer [4] and 69% in data set [6]. For the same compound, the “pH of gastric juice” value with gastric juice secretion [5] is reported as 2.5; with gastric juice secretion [8], 2.6. For the same compound, the “Amount of gastric juice” value is 1.2 ml/100 g body weight in the data set with gastric juice secretion [5] and 1.5 ml/100 g body weight in the data set with gastric juice secretion [8]. Also, the Free hydrochloric acid in the data set with gastric juice secretion [5] was 26 μEq/100 g body weight; with gastric juice secretion [8], 32 μEq/100 body weight. Also, the Total acidity in the data set on gastric juice secretion [5] is on record as 63 μEq/100 g body weight; in the data set with gastric juice secretion [8], 71 μEq/100 body weight.

Regarding `COc1ccc(CC(CN2CCN(C(=O)OCc3ccccc3)CC2)N(C)S(=O)(=O)c2cccc3cnccc23)cc1` (stereo not shown) [(5), N-[2-(4-benzyloxycarbonylpiperazinyl)-1-(p-methoxybenzyl)ethyl]-N-methyl-5-isoquinoline sulfonamide], in data set [1], the General condition result is on record as “No abnormality” and the Mortality rate is given as 0/5. The compound also showed a Gastric damage index in data set [3] of 7.7 mm. For the same compound, the inhibition in vivo at 100 mg/kg in data set [3] (setting [9]) stood at 51%. In the data set on gastric juice secretion [5], the “pH of gastric juice” value was 2.3, the “Amount of gastric juice” value worked out at 1.8 ml/100 g body weight, the Free hydrochloric acid is 48 μEq/100 g body weight and the Total acidity amounted to 80 μEq/100 g body weight. In the data set on aspirin ulcer [7], the Gastric damage index came out at 36.5 mm. In addition, in the data set on aspirin ulcer [7] (setting [10]), the inhibition in vivo at 100 mg/kg turned out to be 53%.
